Where two headings read alike, the source gives them in different places.

Here are results for four compounds from patent US4469691A, “Hexamethylenetetramine-N-acetyl-thiazolidine-4-carboxylate, a process for its preparation and a pharmaceutical composition containing it” (Ausonia Farmaceutici s.r.l., priority 1982, dated 1984).

Data set [1] in a line: Acute oral toxicity in Wistar rats (Litchfield and Wilcoxon). The class given is in vivo. Particulars: in vivo, rat.
In another data set the test system is Streptococcus. Kind of data set: In vitro antibacterial activity, M.I.C., Streptococcus (pyogenes). The class given is cell-based. The conditions noted are these: of 15 strains, pH 5.5. As for the experimental part: (§1) As culture medium, Mueller Hinton Agar at pH 5.5 was used. The compounds under examination were dissolved in and diluted by sterile saline; 1 ml of the diluted solutions thus obtained was poured in Petri's dishes and 19 ml of Mueller Hinton Agar were subsequently added thereto.
(§2) The inoculation of bacteria was performed using a multi point inoculator and a 18 hour growth broth culture of each of the strains under examination. With this method the bacterial inoculum is equal to about 10^5 colony-forming units (CFU) per point. Reading of the results was performed after cultivating the plates for 18 hours at 37° C.

A further data set has as its system Enterococcus. Kind of data set: In vitro antibacterial activity, M.I.C., Enterococcus (Streptococcus faecalis). The class given is cell-based. The conditions noted are these: of 5 strains, pH 5.5. The method, then: as §1, §2
A further data set has as its system Proteus spp. Kind of data set: In vitro antibacterial activity, M.I.C., Proteus spp. The class given is cell-based. Particulars: of 10 strains, pH 5.5. As for the experimental part:
Proteus spp (10 strains)
as §1, §2

The subject of data set [2] is 90 strains of different Gram-positive and Gram-negative bacterial species. Kind of data set: In vitro antibacterial activity, all 90 strains. Type of data set: cell-based, Gram-positive and Gram-negative bacteria. Particulars: for Antibacterial activity (in words): all microorganisms, AFP 829 versus EMTA. The method, then:
as §1, §2

The conditions of data set [3]: in vivo; cited from earlier work.
The nature of data set [4]: Pharmacokinetics in laboratory animals after oral administration.
The next data set concerns Pseudomonas aeruginosa. Kind of data set: In vitro antibacterial activity, M.I.C., Pseudomonas aeruginosa. The class given is cell-based. The conditions noted are these: 62.5 mcg/ml (EMTA; AFP 829 equimolar); of 10 strains; pH 5.5. The method, then:
as §1, §2

The next data set has as its system Citrobacter spp. Kind of data set: In vitro antibacterial activity, M.I.C., Citrobacter spp. Type of data set: cell-based. The conditions noted are these: of 3 strains, pH 5.5. As for the experimental part: Citrobacter spp (3 strains).
as §1, §2

For another data set, the system named is Salmonella spp. Kind of data set: In vitro antibacterial activity, M.I.C., Salmonella spp. Type of data set: cell-based. The conditions noted are these: of 10 strains, pH 5.5. As for the experimental part:
Salmonella spp (10 strains)
as §1, §2

For the next data set, the system named is Klebsiella spp. Kind of data set: In vitro antibacterial activity, M.I.C., Klebsiella spp. Type of data set: cell-based. The conditions noted are these: of 7 strains, pH 5.5. The method, then: Klebsiella spp (7 strains)
as §1, §2

The test system of the next data set is E. coli. Kind of data set: In vitro antibacterial activity, M.I.C., E. coli. Type of data set: cell-based. The conditions noted are these: of 10 strains, pH 5.5. As for the experimental part: as §1, §2
For another data set, the system named is Serratia spp. Kind of data set: In vitro antibacterial activity, M.I.C., Serratia spp. The class given is cell-based. The conditions noted are these: of 5 strains, pH 5.5. As for the experimental part: Serratia spp (5 strains)
as §1, §2

Data set [5] can be described thus: Acute oral toxicity in Swiss mice (Litchfield and Wilcoxon). The class given is in vivo. Particulars: in vivo, mouse.
The test system of another data set is Staphylococcus aureus. Kind of data set: In vitro antibacterial activity, M.I.C., Staphylococcus aureus. Particulars: of 15 strains, pH 5.5. Type of data set: cell-based. The method, then: as §1, §2
Another data set has as its system Wistar rats. Kind of data set: Acute oral toxicity in Wistar rats (Litchfield and Wilcoxon). The class given is in vivo. The conditions noted are these: rat.
For another data set, the system named is liver affections. Kind of data set: Protective activity against liver affections.
For data set [6] the following is noted: in vivo, po.
The test system of the next data set is strain of Ps. aeruginosa. Further details: species or system Sprague Dawley rats; Ps. aeruginosa. The conditions noted are these: rat, in vivo, ip. As for the experimental part:
Each group of animals received the substances i.p. in […] of sterile saline; the animals were placed in metabolic cages with free access to water. Urine samples were collected at the following intervals:
1 ml of nutrient broth at pH 5.5, containing approximately […] colony-forming units of a strain of Ps. aeruginosa sensitive to the action of both substances, was added to 1 ml of the urine or the standard solution of the two drugs dissolved in distilled water.
Standard and urine samples were sequentially diluted twofold by means of the same broth containing the microorganisms until a 1:2048 dilution was achieved.
After overnight incubation at 37° C. the maximum dilution (limit dilution) of the substances or samples inhibiting bacterial growth was determined.
Therefore the concentration of the substances in the urine samples was determined using the formula below: [formula]

For the next data set, the system named is male Wistar rats. Kind of data set: Mucosecretolytic activity in male Wistar rats (method of H. Mawatari). Type of data set: in vivo, rat. The conditions noted are these: for % increase of sodium fluorescein compared with controls: 250 mg/Kg p.o., 10 animals; for Mucosecretolytic activity (in words): oral, rats. As for the experimental part:
Mucosecretolytic activity was determined in male Wistar rats after AFP 829 administration given via the oral route. The method described by H. Mawatari was used for the determination [H. Mawatari, Kagoshima Daiagaku, Igaku Zasshi 27, 561 (1976)]. A drug of known activity--carboxymethylcysteine--was used as the reference standard.

Another data set deals with Swiss mice. Kind of data set: Acute oral toxicity in Swiss mice (Litchfield and Wilcoxon). The class given is in vivo. Particulars: mouse.
[7] abbreviates: 15.6 mcg/ml (EMTA; AFP 829 equimolar).
[8] abbreviates: 62.5 mcg/ml (EMTA; AFP 829 equimolar).
[9] abbreviates: 125 mcg/ml (EMTA; AFP 829 equimolar).
The mark [10] stands for this setting: 250 mcg/ml (EMTA; AFP 829 equimolar).
Setting [11] is: 31.2 mcg/ml (EMTA; AFP 829 equimolar).
The mark [12] stands for this setting: listed as hexamethylenetetramine-N-acetyl-thiazolidine-4-carboxylate (I).

In general, LD50 refers to the dose at which mortality reaches 50%. Low readings indicate greater toxicity, high ones lower toxicity. Turning to `C1N2CN3CN1CN(C2)C3` [EMTA, hexamethylenetetramine], the LD50 is 1050 mg/kg in [1] and 1500 mg/kg in [5]. For the same compound, the “M.I.C., cumulative number of strains inhibited” value in the data set on Streptococcus (setting [7]) was 7 strains; in the data set with Streptococcus (setting [8]), 11 strains; in the data set with Streptococcus (setting [9]), 13 strains; in the data set on Streptococcus (setting [10]), 14 strains; in the data set on Streptococcus (500 mcg/ml (EMTA; AFP 829 equimolar)), 15 strains; in the data set with Enterococcus (setting [8]), 4 strains. For the same compound, the “M.I.C., cumulative number of strains inhibited” value in the data set on Enterococcus (setting [9]) is given as 5 strains; in the data set with Proteus spp (setting [8]) it was 10 strains; in the data set with Pseudomonas aeruginosa it was 10 strains; with Citrobacter spp (setting [8]), 1 strains; in the data set with Citrobacter spp (setting [9]) it was 3 strains; with Salmonella spp (setting [8]), 9 strains. Also, the “M.I.C., cumulative number of strains inhibited” value in the data set with Salmonella spp (setting [9]) worked out at 10 strains; in the data set with Klebsiella spp (setting [8]), 6 strains; in the data set with Klebsiella spp (setting [9]), 7 strains; in the data set on E. coli (setting [8]), 8 strains; in the data set with E. coli (setting [9]) it was 10 strains; with Serratia spp (setting [8]) it was 4 strains. Moreover, the “M.I.C., cumulative number of strains inhibited” value with Serratia spp (setting [9]) worked out at 5 strains; with Staphylococcus aureus (setting [8]), 10 strains; in the data set with Staphylococcus aureus (setting [9]), 14 strains; with Staphylococcus aureus (setting [10]), 15 strains. Besides, the “Antibacterial activity (in words)” value in data set [2] is reported as “slightly less active”. Moreover, the “Converted to formaldehyde in acid urine” value in data set [3] was “about 15%”. Moreover, in data set [3], the “Eliminated unchanged in the urine” value is given as 90%. Moreover, in data set [4], the “Occurrence in urine (in words)” value is recorded as “selectively occur in the urine along with the active metabolites thereof”.

Take `C1N2CN3CN1CN(C2)C3.CC(=O)N1CSCC1C(=O)O` (centres unmarked) [AFP 829, hexamethylenetetramine-N-acetyl-thiazolidine-4-carboxylate]: the LD50 was found to be 2100 mg/kg in the data set on Wistar rats and 1350 mg/kg in the data set with Swiss mice. In addition, the “M.I.C., cumulative number of strains inhibited” value was 5 strains in the data set with Streptococcus (setting [7]); 12 strains with Streptococcus (setting [8]); 15 strains in the data set with Streptococcus (setting [9]); 1 strains in the data set on Enterococcus (setting [11]); 5 strains with Enterococcus (setting [8]); 3 strains with Proteus spp (setting [11]). Also, the “M.I.C., cumulative number of strains inhibited” value amounted to 10 strains in the data set on Proteus spp (setting [8]); 10 strains in the data set with Pseudomonas aeruginosa; 3 strains in the data set with Citrobacter spp (setting [8]); 1 strains in the data set on Salmonella spp (setting [11]); 10 strains with Salmonella spp (setting [8]); 7 strains in the data set with Klebsiella spp (setting [8]). The “M.I.C., cumulative number of strains inhibited” value was determined as 10 strains with E. coli (setting [8]); 4 strains with Serratia spp (setting [8]); 5 strains with Serratia spp (setting [9]); 13 strains in the data set with Staphylococcus aureus (setting [8]); 15 strains in the data set with Staphylococcus aureus (setting [9]). The “Protective activity against liver affections (in words)” value in the data set with liver affections is “protective activity against liver affections”. The “Occurrence in urine (in words)” value in data set [6] is “selectively occur in the urine along with the active metabolites thereof”. The “M.I.C.: no microorganism resistant to concentrations higher than” value in data set [2] (all microorganisms used, pH 5.5) is ≤ 125 µg/mL. Besides, the “Antibacterial activity (in words)” value is given as “active in comparison with all of the microorganisms used” in data set [2] and “higher antibacterial activity than hexamethylenetetramine” in data set [2] (setting [12]). Moreover, the Concentration in urine is on record as 2000 mcg/ml of urine in the data set on strain of Ps. aeruginosa (1.5 h), 4000 mcg/ml of urine in the data set on strain of Ps. aeruginosa (2.5 h), 4000 mcg/ml of urine in the data set with strain of Ps. aeruginosa (4.5 h) and 1000 mcg/ml of urine with strain of Ps. aeruginosa (6.5 h). The “% increase of sodium fluorescein compared with controls” value in the data set on male Wistar rats is 96.1%. In addition, the “Mucosecretolytic activity (in words)” value with male Wistar rats was “powerful mucosecretolytic activity, markedly higher than the standard substance”; with male Wistar rats (setting [12]) it was “remarkable mucosecretolytic properties”.

carboxymethylcysteine: in the data set with male Wistar rats, the “% increase of sodium fluorescein compared with controls” value was 33.4%.

As to `O=C(O)C1CSCN1` (centres unmarked) [TCA, thiazolidine-4-carboxylic acid], the LD50 in [1] turned out to be 800 mg/kg; in data set [5], 400 mg/kg.
